From patent US20230278981A1, “DICHLOROPHENOL HSD17B13 INHIBITORS AND USES THEREOF” (INIPHARM, INC., priority 2020, published 2023)

Target: HSD17B13 (Homo sapiens (Human), UniProt Q7Z5P4)
Assay: LC/MS estrone detection assay: conversion of estradiol to estrone by HSD17B13
Format: biochemical
Conditions: 4 μM estradiol, 6 mM NAD+, 30 nM HSD17B13 enzyme (E. coli expressed His-tagged), 2 hours at 26.5° C.
Outline: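 His-tagged E. coli-expressed HSD17B13 (30 nM) with 4 μM estradiol and 6 mM NAD+ in 1 M potassium phosphate pH 7.4, 0.5% DMSO, 2 h at 26.5° C. Estrone and estradiol quantified by LC-MS/MS after MeCN quench with D4-estrone internal standard; activity as % of uninhibited enzyme, IC50 by four-parameter fit, duplicates.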

Sequence of HSD17B13 (Q7Z5P4 20-300): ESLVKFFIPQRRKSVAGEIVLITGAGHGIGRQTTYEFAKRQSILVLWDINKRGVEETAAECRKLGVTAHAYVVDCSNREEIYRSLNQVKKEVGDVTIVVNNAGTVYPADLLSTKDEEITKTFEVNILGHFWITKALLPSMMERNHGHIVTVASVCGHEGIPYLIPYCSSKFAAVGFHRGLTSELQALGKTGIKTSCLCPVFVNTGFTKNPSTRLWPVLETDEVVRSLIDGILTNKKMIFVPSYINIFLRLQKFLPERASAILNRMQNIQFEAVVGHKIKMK

IC50	Structure (SMILES)
≤ 100 nM	O=C(Nc1ccc(F)c2ncn(Cc3ccccc3C(F)(F)F)c(=O)c12)c1cc(Cl)c(O)c(Cl)c1 [Example 204, 3,5-dichloro-N-(8-fluoro-4-oxo-3-(2-(trifluoromethyl)benzyl)-3,4-dihydroquinazolin-5-yl)-4-hydroxybenzamide]
500 to 1000 nM	Cc1ccc(NC(=O)c2cc(Cl)c(O)c(Cl)n2)c2c(=O)n(Cc3cccc(C(F)(F)F)n3)c(C)nc12 [Example 205, 4,6-dichloro-N-(2,8-dimethyl-4-oxo-3-((6-(trifluoromethyl)pyridin-2-yl)methyl)-3,4-dihydroquinazolin-5-yl)-5-hydroxypicolinamide]
≤ 100 nM	O=C(Nc1ccc(F)c2ncn(Cc3ccccc3C(F)(F)F)c(=O)c12)c1cc(Cl)c(O)c(Cl)n1 [Example 206, 4,6-dichloro-N-(8-fluoro-4-oxo-3-(2-(trifluoromethyl)benzyl)-3,4-dihydroquinazolin-5-yl)-5-hydroxypicolinamide]
100 to 500 nM	Cc1nc2c(F)ccc(NC(=O)c3cc(Cl)c(O)c(Cl)n3)c2c(=O)n1[C@H]1CC[C@@H]1c1ccccc1 [Example 207, 4,6-dichloro-N-(8-fluoro-2-methyl-4-oxo-3-((1S,2R)-2-phenylcyclobutyl)-3,4-dihydroquinazolin-5-yl)-5-hydroxypicolinamide]
